Laboratory results reported in ChEMBL document CHEMBL1129889, “Design and synthesis of novel nonpeptide CCK-B receptor antagonists” (Bioorg Med Chem Lett, 1997).

Experiments:
[1] = target: T1, Cholecystokinin receptor type A (Rattus norvegicus, UniProt P30551); assay: Inhibition of specific binding of [125 I] Bolton Hunter CCK-8 to Cholecystokinin type A receptor in the rat pancreas
T1 sequence (P30551 whole entry): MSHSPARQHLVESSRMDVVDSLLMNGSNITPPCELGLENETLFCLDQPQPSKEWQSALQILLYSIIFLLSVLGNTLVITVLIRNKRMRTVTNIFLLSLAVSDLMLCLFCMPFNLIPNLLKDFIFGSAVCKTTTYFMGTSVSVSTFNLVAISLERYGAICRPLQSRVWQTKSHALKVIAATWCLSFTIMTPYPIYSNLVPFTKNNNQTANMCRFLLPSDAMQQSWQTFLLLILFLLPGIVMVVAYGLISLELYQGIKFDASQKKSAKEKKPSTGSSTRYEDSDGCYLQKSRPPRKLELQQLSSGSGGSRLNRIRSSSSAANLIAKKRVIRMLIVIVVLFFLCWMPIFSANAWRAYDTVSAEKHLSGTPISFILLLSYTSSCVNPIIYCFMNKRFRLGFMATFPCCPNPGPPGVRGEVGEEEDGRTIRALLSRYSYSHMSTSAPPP

[2] = target: T2, Gastrin/cholecystokinin type B receptor (Mus musculus, UniProt P56481); assay: Inhibition of [125 I]CCK-8 binding to Cholecystokinin type B receptor of mouse cerebral cortex; format: tissue-based
T2 sequence (P56481 whole entry): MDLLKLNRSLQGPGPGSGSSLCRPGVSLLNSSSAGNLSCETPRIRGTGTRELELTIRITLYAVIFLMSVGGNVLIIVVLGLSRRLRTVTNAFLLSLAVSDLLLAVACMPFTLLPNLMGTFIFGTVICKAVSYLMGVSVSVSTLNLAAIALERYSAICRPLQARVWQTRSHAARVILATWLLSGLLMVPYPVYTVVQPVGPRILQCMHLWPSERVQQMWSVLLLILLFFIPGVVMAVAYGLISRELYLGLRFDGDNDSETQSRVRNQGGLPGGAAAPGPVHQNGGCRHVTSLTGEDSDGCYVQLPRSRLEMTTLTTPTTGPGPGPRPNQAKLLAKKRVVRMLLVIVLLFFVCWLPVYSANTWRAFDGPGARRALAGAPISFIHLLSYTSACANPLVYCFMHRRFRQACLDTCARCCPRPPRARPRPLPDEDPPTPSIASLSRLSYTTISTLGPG

[3] = target: T3, Gastrin/cholecystokinin type B receptor (Mus musculus) (UniProt P56481); assay: Binding activity
T3 sequence (whole entry): T2 sequence (P56481 whole entry)

Compound	IC50 [1] [nM]	IC50 [2] [nM]	Ke [3] [nM]
CC(C)Oc1cccc(-n2c(CNC(=O)Nc3ccc(C(F)(F)F)cc3)nc3ccccc3c2=O)c1	674	691	–
CC(C)Oc1cccc(-n2c(NC(=O)Nc3ccc(Br)cc3)nc3ccccc3c2=O)c1	> 1000	> 1000	–
CC(C)Oc1cccc(-n2c(CCNC(=O)Nc3ccc(Br)cc3)nc3ccccc3c2=O)c1	1630	585	–
CC(C)Oc1cccc(-n2c(CNC(=S)Nc3ccc(Br)cc3)nc3ccccc3c2=O)c1	6930	8020	–
Cc1cccc(NC(=O)NCc2nc3ccccc3c(=O)n2-c2cccc(OC(C)C)c2)c1	1640	879	–
CC(C)Oc1cccc(-n2c(CNC(=O)Nc3ccc([N+](=O)[O-])cc3)nc3ccccc3c2=O)c1	385	212	–
CC(C)Oc1cccc(-n2c(CNC(=O)NCc3ccc(Br)cc3)nc3ccccc3c2=O)c1	3100	652	–
Cc1ccc(S(=O)(=O)NC(=O)NCc2nc3ccccc3c(=O)n2-c2cccc(OC(C)C)c2)cc1	> 1000	> 1000	–
CC(C)Oc1cccc(-n2c(CNC(=O)Nc3ccc(Br)cc3)nc3ccccc3c2=O)c1	984	137	1300
CCOC(=O)c1cccc(NC(=O)NCc2nc3ccccc3c(=O)n2-c2cccc(OC(C)C)c2)c1	1470	126	230
